Laboratory results taken from paper PMC7838189, “Natural podophyllotoxin analog 4DPG attenuates EMT and colorectal cancer progression via activation of checkpoint kinase 2” (Cell Death Discovery, 2021).

Key:
[1] = tested on: Vimentin–p53 association in SW-620/5-FU-R cells; assay: Immunoprecipitation of Vimentin and p53; type: cell-based; conditions: 300 nM, 48 h, vs ample p53 in vehicle
Method: Fig. 3 Chk2-dependent role of 4DPG in modulating p53 and repressing Vimentin expression in 5-FU-R cells. A Immunocytochemistry results showing the Vimentin expression level in SW-620/5-FU-R cells treated/transfected with scramble, SiChk2, scramble plus 4DPG, SiChk2 plus 4DPG, vehicle, PV1019, 4DPG, and PV1019 plus 4DPG for 48 h. Scale bars: 50 µm. […] C Matrigel invasion assay results showing invaded HCT-116/5-FU-R and SW-620/5-FU-R cells following 48 h of transient transfection with GFP and GFP-Chk2 plasmid construct. Scale bars: 50 µm. D Quantification of the number of invaded cells per field from the above experimental conditions. n = 3, error bars, mean ± SD; *P < 0.05, ***P < 0.001. E Immunocytochemistry results displaying Vimentin expression levels in HCT-116/5-FU-R and SW-620/5-FU-R cells after 48 h of transient transfection with pCDNA3 and/or HA-Chk2 plasmid construct. Scale bars: 50 µm. F Immunoprecipitation with Vimentin or p53 followed by western blotting analysis of p53 in SW-620/5-FU-R cells treated with vehicle and/or 4DPG (300 nM) for 48 h. […]
For immunoprecipitation analysis, the previously described procedure was followed with minor modification. […] Following careful washing with lysis buffer, the immunoprecipitates were analyzed by western blotting.

HT-29/5-FU-R cells = assay: Western blotting of Chk2 after 4DPG; type: cell-based; conditions: 48 h, vs vehicle
Description: 4DPG, a podophyllotoxin class of natural product anticancer compound (Supplementary Fig. S2A) has been recently described by our research group for its potent antitumor and anti-metastatic properties against aggressive cancers[31],[32]. Further, 4DPG augments phosphorylation and activation of Chk2 (Thr68) leading to suppression of EMT and invasiveness of p53-defective cancer cells. To investigate the effect of 4DPG on phosphorylation and expression levels of Chk2 in HCT-116/5-FU-R, SW-620/5-FU-R, and HT-29/5-FU-R cells, we treated these cells for 48 h with increasing concentrations of the compound, and whole-cell lysates were subjected to western blotting analysis. […] To determine the effect of 4DPG on the invasion abilities of these 5-FU-R cells, we performed in situ fluorescent gelatin degradation assay following our pre-standardized protocol[31],[37]. In physiological conditions, this assay mimics the extracellular matrix degradation by aggressive tumor cells undergoing invasion–metastasis process.
We adhered to the previously published protocol for western blotting. To sum up, cells were exposed to the respective treatments (mentioned in figure legends). Post-treatment, cells were lysed with cell lysis buffer, and cell lysates were collected after centrifugation. Bradford assay was performed to quantify the protein concentration. […]

[2] = tested on: tumor tissues of orthotopic rat colorectal carcinoma; assay: Western blotting of tumor tissues; type: in vivo, Wistar rats; conditions: 4DPG-treated group vs saline
Method: We adhered to the previously published protocol for western blotting. To sum up, cells were exposed to the respective treatments (mentioned in figure legends). Post-treatment, cells were lysed with cell lysis buffer, and cell lysates were collected after centrifugation. Bradford assay was performed to quantify the protein concentration. Equal amount of protein was taken from each sample to carry out the western blot analysis. SDS-PAGE was employed to separate the proteins that were later transferred onto PVDF membranes (Millipore, Billerica, MA). Next, the membranes were blocked with 5% skim milk and subsequently incubated with the specific primary antibodies (1:1000 dilution), either for 3 h at room temperature or overnight at 4 °C. Later, the blots were washed thoroughly with TBST and probed with the respective secondary antibodies (1:2000 dilution) coupled with horseradish peroxidase for 1 h. Following thorough washing, the membranes were visualized using enhanced chemiluminescence reagent (Millipore) and captured onto Biomax light film (The Eastman Kodak Co., Rochester, NY).

## COc1cc([C@@H]2c3cc4c(cc3C[C@H]3COC(=O)[C@@H]32)OCO4)cc(OC)c1O[C@@H]1O[C@H](CO)[C@@H](O)[C@H](O)[C@H]1O [4DPG, 4′-demethyl-deoxypodophyllotoxin glucoside]
[1]
  p53 detected in Vimentin pull-down lysates: negligible p53 expression
HT-29/5-FU-R cells; 300 nM (sub-toxic)
  increase in p-Chk2 (Thr68) level: 7.9 fold
HT-29/5-FU-R cells
  expression of Chk2 (total): did not alter significantly
[2]
  activation of p53 in tumor tissues: 5.82 fold
  activation of p-Chk2 (Thr68) in tumor tissues: 3.54 fold
  downmodulation of Vimentin in tumor tissues: 8.3 fold
  downmodulation of p-Vimentin (ser38) in tumor tissues: 18.2 fold
